For this test, the system named is L1210 leukemia ip in BDF1 mice, survival T/C. Put plainly: NCI In Vivo Anticancer Drug Screen. Data for tumor model L1210 Leukemia (intraperitoneal) in B6D2F1 (BDF1) mice. The note with it: endpoint: mean survival time, higher = longer survival. Summed up:
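Value reflects the ratio of survival in compound-treated mice to survival in vehicle-treated controls, with both groups carrying the same transplanted tumor.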

Setting [1] is: dose: 100.0 mg/kg/injection, schedule: Q04DX003 (ip), vehicle: saline with Tween-80.
Where [2] appears, read: dose: 200.0 mg/kg/injection, schedule: Q04DX003 (ip), vehicle: saline with Tween-80.
Setting [3] is: dose: 400.0 mg/kg/injection, schedule: Q04DX003 (ip), vehicle: saline with Tween-80.
Setting [4] is: dose: 100.0 mg/kg/injection, schedule: Q04DX003 (ip), vehicle: saline.

Values joined by “and” are separate entries in the source; they are usually repeats but may differ in a detail not shown here. Equal entries are not always repeated. Inconclusive results and toxic doses are left out.

`O=C1c2[nH]c3ccccc3c2CC2CC12` (stereo not drawn): the T/C reads like this: (dose: 75.0 mg/kg/injection, schedule: Q01DX001 (ip), vehicle: saline) 96 % of control; (dose: 150.0 mg/kg/injection, schedule: Q01DX001 (ip), vehicle: saline) 104 % of control; (dose: 300.0 mg/kg/injection, schedule: Q01DX001 (ip), vehicle: saline) 101 % of control.
On to `Cc1ccc(S(=O)(=O)N/N=C/c2ccccc2C)cc1`, for which the T/C (dose: 100.0 mg/kg/injection, schedule: Q01DX009 (ip), vehicle: saline with Tween-80) is 105 % of control; the T/C under setting [1] is 98 % of control; the T/C (dose: 200.0 mg/kg/injection, schedule: Q01DX009 (ip), vehicle: saline with Tween-80) is 100 % of control; the T/C under setting [2] was 95 % of control; the T/C (dose: 400.0 mg/kg/injection, schedule: Q01DX009 (ip), vehicle: saline with Tween-80) is 97 % of control; the T/C under setting [3] is 95 % of control.
Consider `CCSC1OC(COS(C)(=O)=O)C(OS(C)(=O)=O)C1NC(C)=O` (stereo not drawn), for which the T/C was 97 % of control (dose: 50.0 mg/kg/injection, schedule: Q01DX001 (ip), vehicle: carboxymethylcellulose (CMC)); 97 % of control (dose: 100.0 mg/kg/injection, schedule: Q01DX001 (ip), vehicle: carboxymethylcellulose (CMC)); 92 % of control (dose: 200.0 mg/kg/injection, schedule: Q01DX001 (ip), vehicle: carboxymethylcellulose (CMC)); 97 % of control (dose: 400.0 mg/kg/injection, schedule: Q01DX001 (ip), vehicle: carboxymethylcellulose (CMC)).
Turning to `C/C(CCO)=N\NC(N)=S`, the T/C was 98 % of control (dose: 50.0 mg/kg/injection, schedule: Q01DX001 (ip), vehicle: saline); 98 % of control (dose: 100.0 mg/kg/injection, schedule: Q01DX001 (ip), vehicle: saline); 100 % of control under setting [4]; 92 % of control (dose: 200.0 mg/kg/injection, schedule: Q01DX001 (ip), vehicle: saline); 90 % of control (dose: 200.0 mg/kg/injection, schedule: Q04DX003 (ip), vehicle: saline); 101 % of control (dose: 400.0 mg/kg/injection, schedule: Q01DX001 (ip), vehicle: saline). Further, the T/C (dose: 400.0 mg/kg/injection, schedule: Q04DX003 (ip), vehicle: saline) is 88 % of control.
In the case of `C[N+](C)(C)CCC[N+]1(C)CC2C3CCCCC3=C3CCCCC3C2C1` (stereo not drawn), the T/C reads like this: (dose: 5.0 mg/kg/injection, schedule: Q01DX001 (ip), vehicle: saline) 95 % of control; (dose: 10.0 mg/kg/injection, schedule: Q01DX001 (ip), vehicle: saline) 98 % of control; (dose: 20.0 mg/kg/injection, schedule: Q01DX001 (ip), vehicle: saline) 101 % of control.
On to `N#CC(OC(=O)c1ccccc1)c1ccccc1` (stereo not drawn), for which the T/C is 104 % of control (dose: 75.0 mg/kg/injection, schedule: Q01DX001 (ip), vehicle: other) and 105 % of control (dose: 150.0 mg/kg/injection, schedule: Q01DX001 (ip), vehicle: other).
For the compound `CCN(CC)CCOc1ccccc1C(=O)CCc1ccccc1`, the T/C reads like this: (dose: 12.5 mg/kg/injection, schedule: Q01DX009 (ip), vehicle: saline) 93 % of control; (dose: 25.0 mg/kg/injection, schedule: Q01DX009 (ip), vehicle: saline) 93 % of control; (dose: 25.0 mg/kg/injection, schedule: Q04DX003 (ip), vehicle: saline) 99 % of control; (dose: 50.0 mg/kg/injection, schedule: Q01DX009 (ip), vehicle: saline) 100 % of control; (dose: 50.0 mg/kg/injection, schedule: Q04DX003 (ip), vehicle: saline) 97 % of control; under setting [4], 102 % of control.
Regarding `CC1(c2ccccc2)NC(=O)NC1=O` (stereo not drawn), the T/C was 92 % of control (dose: 100.0 mg/kg/injection, schedule: Q01DX001 (ip), vehicle: Klucel (hydroxypropylcellulose) (HPC)); 95 % of control (dose: 200.0 mg/kg/injection, schedule: Q01DX001 (ip), vehicle: Klucel (hydroxypropylcellulose) (HPC)); 95 % of control (dose: 400.0 mg/kg/injection, schedule: Q01DX001 (ip), vehicle: Klucel (hydroxypropylcellulose) (HPC)).
Regarding `CN(C)C(=O)Sc1ccc(SC(=O)N(C)C)cc1`, the T/C reads like this: (dose: 100.0 mg/kg/injection, schedule: Q01DX001 (ip), vehicle: saline with Tween-80) 97 % of control; (dose: 200.0 mg/kg/injection, schedule: Q01DX001 (ip), vehicle: saline with Tween-80) 97 % of control; (dose: 400.0 mg/kg/injection, schedule: Q01DX001 (ip), vehicle: saline with Tween-80) 97 % of control.
As for `CC(=O)NC(C(=O)O)(C(=O)O)C(C)c1c[nH]c2ccccc12` (stereo not drawn), the T/C is 95 % of control under setting [1], 90 % of control under setting [2] and 95 % of control under setting [3].
Turning to `CCCCCCCCCCCCCCCCCCCCC1CC(=O)OC1=O` (stereo not drawn), the T/C (dose: 100.0 mg/kg/injection, schedule: Q04DX003 (ip), vehicle: Klucel (hydroxypropylcellulose) (HPC)) is 91 % of control; the T/C (dose: 200.0 mg/kg/injection, schedule: Q04DX003 (ip), vehicle: Klucel (hydroxypropylcellulose) (HPC)) was 92 % of control; the T/C (dose: 400.0 mg/kg/injection, schedule: Q04DX003 (ip), vehicle: Klucel (hydroxypropylcellulose) (HPC)) was 91 % of control.
On to `NC(N)=NCCS(=O)(=O)Nc1ccc(Nc2c3ccccc3nc3cc([N+](=O)[O-])ccc23)cc1`, for which the T/C was 121 % of control (dose: 0.75 mg/kg/injection, schedule: Q01DX009 (ip), vehicle: water); 163 % of control (dose: 6.0 mg/kg/injection, schedule: Q01DX009 (ip), vehicle: water); 157 % of control (dose: 25.0 mg/kg/injection, schedule: Q04DX003 (ip), vehicle: water); 175 % of control (dose: 50.0 mg/kg/injection, schedule: Q04DX003 (ip), vehicle: water).
As to `C1CCC2(CC1)CCCC2`, the T/C runs as follows: (dose: 75.0 mg/kg/injection, schedule: Q01DX001 (ip), vehicle: saline with Tween-80) 95 % of control; (dose: 150.0 mg/kg/injection, schedule: Q01DX001 (ip), vehicle: saline with Tween-80) 92 % of control; (dose: 300.0 mg/kg/injection, schedule: Q01DX001 (ip), vehicle: saline with Tween-80) 104 % of control.
For the compound `COc1cc2c(cc1OC)C(=O)C(c1ccc3c(c1)OCO3)CC2` (stereo not drawn), the T/C reads like this: (dose: 100.0 mg/kg/injection, schedule: Q01DX009 (ip), vehicle: water) 102 % of control; (dose: 100.0 mg/kg/injection, schedule: Q04DX003 (ip), vehicle: water) 94 % of control; (dose: 200.0 mg/kg/injection, schedule: Q01DX009 (ip), vehicle: water) 91 % of control; (dose: 200.0 mg/kg/injection, schedule: Q04DX003 (ip), vehicle: water) 92 % of control; (dose: 400.0 mg/kg/injection, schedule: Q01DX009 (ip), vehicle: water) 101 % of control; (dose: 400.0 mg/kg/injection, schedule: Q04DX003 (ip), vehicle: water) 94 % of control.
For the compound `CCCCCCCCCCCCCCCCNC(=S)N/N=C(/C=C/c1ccccc1)C(=O)O`, the T/C was 101 % of control (dose: 15.0 mg/kg/injection, schedule: Q01DX Z (ip), vehicle: carboxymethylcellulose (CMC)); 108 % of control (dose: 30.0 mg/kg/injection, schedule: Q01DX Z (ip), vehicle: carboxymethylcellulose (CMC)); 112 % of control (dose: 30.0 mg/kg/injection, schedule: Q01DX Z (oral), vehicle: carboxymethylcellulose (CMC)); 113 % of control (dose: 60.0 mg/kg/injection, schedule: Q01DX Z (ip), vehicle: carboxymethylcellulose (CMC)); 111 % of control (dose: 60.0 mg/kg/injection, schedule: Q01DX Z (oral), vehicle: carboxymethylcellulose (CMC)); 100 % of control and 101 % of control (dose: 120.0 mg/kg/injection, schedule: Q01DX Z (oral), vehicle: carboxymethylcellulose (CMC)). For the same compound, the T/C is, setting by setting: (dose: 240.0 mg/kg/injection, schedule: Q01DX Z (oral), vehicle: carboxymethylcellulose (CMC)) 108 % of control and 109 % of control; (dose: 480.0 mg/kg/injection, schedule: Q01DX Z (oral), vehicle: carboxymethylcellulose (CMC)) 109 % of control; (dose: 960.0 mg/kg/injection, schedule: Q01DX Z (oral), vehicle: carboxymethylcellulose (CMC)) 113 % of control.
With `COc1cc(-c2cc(-c3ccccc3)c3ccccc3n2)cc(OC)c1OC`, the T/C (dose: 100.0 mg/kg/injection, schedule: Q01DX009 (ip), vehicle: Klucel (hydroxypropylcellulose) (HPC)) is 97 % of control; the T/C (dose: 200.0 mg/kg/injection, schedule: Q01DX009 (ip), vehicle: Klucel (hydroxypropylcellulose) (HPC)) is 100 % of control; the T/C (dose: 400.0 mg/kg/injection, schedule: Q01DX009 (ip), vehicle: Klucel (hydroxypropylcellulose) (HPC)) was 96 % of control.
